Measurements from BindingDB's records for doi:10.1021/np500198g (University of Tuebingen, 2014).

Biological target: T1, Prostaglandin G/H synthase 2 (Homo sapiens, UniProt P35354)
T1 sequence (P35354 whole entry): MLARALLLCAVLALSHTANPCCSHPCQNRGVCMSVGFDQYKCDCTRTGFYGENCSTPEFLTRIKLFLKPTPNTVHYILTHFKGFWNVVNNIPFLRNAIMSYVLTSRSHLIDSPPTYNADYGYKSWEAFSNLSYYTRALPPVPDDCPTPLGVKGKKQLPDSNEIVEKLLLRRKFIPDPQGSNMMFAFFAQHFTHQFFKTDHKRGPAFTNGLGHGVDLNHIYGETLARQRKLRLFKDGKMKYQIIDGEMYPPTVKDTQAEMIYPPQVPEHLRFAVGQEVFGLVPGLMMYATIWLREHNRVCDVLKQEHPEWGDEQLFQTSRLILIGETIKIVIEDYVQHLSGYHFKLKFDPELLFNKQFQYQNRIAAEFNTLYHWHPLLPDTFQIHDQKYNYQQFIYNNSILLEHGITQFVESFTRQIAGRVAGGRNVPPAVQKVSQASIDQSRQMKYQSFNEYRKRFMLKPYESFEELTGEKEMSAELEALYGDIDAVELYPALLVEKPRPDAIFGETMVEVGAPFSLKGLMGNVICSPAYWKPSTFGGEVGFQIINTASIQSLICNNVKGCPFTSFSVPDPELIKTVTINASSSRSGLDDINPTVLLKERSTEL
Test: Inhibition of human recombinant COX-2 using arachidonic acid as substrate preincubated for 5 mins followed by substrate addition measured after 5 mins by HPLC analysis

`CC(C)=CCC[C@H](C(=O)O)[C@@H]1CC[C@]2(C)C3=C(CC[C@@]12C)[C@@]1(C)CC[C@@H](O)C(C)(C)[C@@H]1CC3` was tested, and the IC50 was > 10 µM.
